The record followed here is US20240091241A1, “USE OF CANNABIDIOL PREPARATIONS IN THE TREATMENT OF TEMPORAL LOBE EPILEPSY” (GW Research Limited, priority 2019, published 2024).

A short description of data set [1]: General status / body weight of Li-Pilo rats during treatment. In kind it is in vivo, rat. As to the method: (§1) From this point, the rats selected received vehicle during the first week of dosing then the test substance, CBD (SYN) or CBD (BOT 0.08%), at 200 mg/kg in drinking water until the end of the study, i.e. 7 weeks (1 week vehicle+6 weeks test substance). Dosing continued throughout the behavioural testing period (1 week). The drink was changed twice a week, until the end of the experiment.
The rats were weighed twice a week, at the same time that the vehicle/formulations were changed in the bottles. The glass bottles were also weighed twice a week for evaluating the volume drunk by the rat and adjusting the concentration during the experiment.

For data set [2], the system named is Li-Pilo rats. In words: Elevated plus-maze test in Li-Pilo rats. The settings on record: 200 mg/kg, given orally for 6/7 weeks before the test. In kind it is in vivo, rat. As to the method:
as §1
The behavioural tests started 6 weeks after the beginning of dosing, i.e. between weeks 11 and 13. The rats were tested in sub-groups, depending on the beginning of the treatment. The behavioural tests included the elevated plus maze, social investigation, social recognition and accelerating rotarod tests (tests done in this order on the week of assessment).
The method, which detects anxiolytic activity, follows that described by Handley and Mithani (Naunyn. Schmied. Arch. Pharmacol., 327, 1-5, 1984). Rodents avoid open spaces (the open arms of an elevated plus-maze). Anxiolytics increase exploratory activity in the open arms, as indicated by increased time spent on the open arms and/or by increased % open-arm entries.
The maze consisted of 4 arms of equal length and width (50×10 cm) arranged in the form of a plus sign (+). Two opposite arms were enclosed by 40 cm high walls (closed arms). The 2 other arms had no walls (open arms). The maze was raised approximately 65 cm above the floor. A rat was placed in the center of the plus-maze and was left to explore for 5 minutes. The number of entries into the open and closed arms and the time spent on the open arms were recorded. The % of open arm entries (open arm entries/total arm entries×100) was calculated.
A test of normality (D'Agostino and Pearson) was done to check the distribution of the data before applying the appropriate statistical analysis. Data on the total number of entries and on the percent of entries in open arms was analyzed using One-Way analysis of variance (ANOVA) followed by Sidak's multiple comparisons test. Data on the time spent in open arms was analysed using Kruskal-Wallis Test followed by Dunn's multiple comparisons test.

In data set [3] the test system is rat model of temporal lobe epilepsy, Reduced Intensity Status Epilepticus (RISE). In words: Post-Seizure Behavioural Battery (PSBB) in the Reduced Intensity Status Epilepticus (RISE) model. In kind it is in vivo. The procedure: Reduced Intensity Status Epilepticus (RISE) model
The method, which detects anti-epileptic activity follows that described by Modebaze et al., 2016 (PLoS one, 11(2):e0147265).
On Day 1, the rats were treated with lithium chloride (127 mg/kg, 5 mL/kg, s.c.). Approximately 24 hours after, on Day 2, a-methyl scopolamine (1 mg/kg, 1 mL/kg, s.c.) was administered to reduce peripheral manifestations of muscarinic cholinergic receptor activation. Thirty minutes later, a dose of pilocarpine chloride was injected (range from 25 mg/kg×1 to 40 mg/kg×5, i.e. 25-200 mg/kg, 1 mL/kg, s.c., reference P6503, Sigma). […]
Status epilepticus was determined when seizure severity was equal to a score of 5 on a Racine's scale. […]
Behavioural signs of status epilepticus were ceased within 30 minutes and animals were then closely monitored during subsequent recovery. They were visually monitored until ambulatory and able to consume water and moistened, powdered food. […]
The lithium-pilocarpine rats were assessed in the two following behavioural tests twice weekly over the next 10 weeks, starting two weeks after status epilepticus induction (on Day 15). […]
The PSBB score was analysed pre and post-treatment to assess firstly if the animals were evenly distributed in the 3 different treatment groups based on their epileptic phenotype and if it was affected differently by synthetic and botanical CBD. […]

The subject of data set [4] is Li-Pilo rats. Briefly: Social investigation test in Li-Pilo rats. The data set is classed as in vivo, rat. The note with it: 200 mg/kg, given orally for 6/7 weeks before the test. The procedure:
as §1
The behavioural tests started 6 weeks after the beginning of dosing, i.e. between weeks 11 and 13. The rats were tested in sub-groups, depending on the beginning of the treatment. […]
Two unfamiliar rats (housed in 2 separate cages) from the same group were placed in an unfamiliar testing arena (80×80×40 cm) under dim light (<100 Lux). The behavior of the 2 rats was recorded for 10 minutes.
The time each rat spent investigating (sniffing, grooming, licking, closely following) the other rat was measured manually for 10 minutes. Locomotor activity (line crossing) was also recorded.
A test of normality (D'Agostino and Pearson) was done to check the distribution of the data before applying the appropriate statistical analysis. Data on the investigation duration was analyzed using Kruskal-Wallis Test followed by Dunn's multiple comparisons test. Data on the number of crossings was analysed using One-Way ANOVA followed by Sidak's multiple comparisons test.

Take `C=C(C)[C@@H]1CCC(C)=C[C@H]1c1c(O)cc(CCCCC)cc1O` [Synthetic CBD, cannabidiol]: the “rats that lost weight on the 7 weeks of test” value in data set [1] (Phase 1) is given as “Three other rats lost weight”. Further, the “deaths in the treated group” value in data set [1] (Phase 1, nine rats in group) is listed as “Two rats died”. Moreover, in data set [1] (Phase 2), the “rats that lost weight on the 7 weeks of test” value is reported as “Four other rats lost weight”. In data set [1] (Phase 2, thirteen rats in group), the “rats lost before the end of the experiment” value is on record as “One rat was sacrificed for ethical reasons”. In addition, in data set [2], the “percent of entries in open arms, as compared with control Li-Pilo rats” value is “did not clearly affect” and the “time spent in open arms, as compared with control Li-Pilo rats” value is reported as “did not clearly affect”. Further, in data set [2] (5 minutes), the “total number of entries, as compared with control Li-Pilo rats” value is recorded as “did not clearly affect”. Further, in data set [3] (200 mg/kg, given orally for 6/7 weeks before the test), the “post-treatment PSBB score, as compared with control Li-Pilo rats (epileptic vehicle)” value was “did not significantly affect”. For the same compound, the “post-treatment PSBB score (conclusion)” value in data set [3] (epileptic animals, comparator not stated) is on record as “failed to lower the score”. Besides, in data set [4], the “duration of investigation, as compared with control Li-Pilo rats” value is given as “did not significantly change” and the “number of line crossings, as compared with control Li-Pilo rats” value is reported as “did not significantly change”.
